Key:
Assay type in all cases: in vivo
[1] = tested on: Italian ryegrass (Lolium multiflorum); assay: (5) Herbicidal effect test, pot, spray at 3.0 to 3.3 leaf stage; settings: 6th day after spraying
Source text: (§1) [formula] • X: growth inhibition rate when treated with α (g/ha) of compound A, • Y: growth inhibition rate when treated with β (g/ha) of compound B, • E: growth inhibition rate expected when treated with α (g/ha) of compound A and β (g/ha) of compound B (expected value).
(§2) Upland soil was put in a 1/1,000,000 hectare pot, and seeds of Italian ryegrass (Lolium multiflorum) were sown. When the Italian ryegrass reached 3.0 to 3.3 leaf stage, a water-based suspension containing tiafenacil as the active ingredient, prepared by a conventional method for preparing a water-based suspension, and a wettable powder containing metribuzin as the active ingredient (tradename: SENCOR wettable powder, manufactured by Bayer Crop Science), water dispersible granules containing pyroxasulfone as the active ingredient (tradename: Sakura, manufactured by Bayer Crop Science) or a wettable powder containing tri-allate as the active ingredient, prepared by a conventional method for preparing a wettable powder, were diluted with water (in an amount corresponding to 200 liter per hectare) containing 0.5 vol % of an agricultural spreader (tradename: Destiny HC, manufactured by Winfield Solutions, LLC.) and sprayed by a small spray gun (model: W-101-132G, manufactured by ANEST IWATA Corporation). On the 6th day after spraying, the state of growth of the Italian ryegrass was visually observed, and the growth inhibition rate (%) was obtained in accordance with the evaluation standards described in the above (1) herbicidal effect test, and the results are shown in Table 5. Further, the expected value of the growth inhibition rate (%) was calculated in accordance with the Colby's formula described in the above (1) herbicidal effect test, and the results are also shown in Table 5.

[2] = tested on: Italian ryegrass (Lolium multiflorum); assay: (9) Herbicidal effect test, pot, spray at 3.2 to 4.0 leaf stage; settings: 6th day after spraying
Source text: as §1
as §2, with “When” for “When the”, “3.2” for “3.0”, “4.0” for “3.3”, “containing” for “containing metribuzin as the active ingredient (tradename: SENCOR wettable powder, manufactured by Bayer Crop Science), water dispersible granules containing pyroxasulfone as the active ingredient (tradename: Sakura, manufactured by Bayer Crop Science) or a wettable powder containing”, “powder, an emulsifiable concentrate containing pethoxamid as the active ingredient (tradename: Successor 600, manufactured by Stähler Suisse SA) or an emulsifiable concentrate containing dimethenamid-P as the active ingredient (tradename: Fieldstar P emulsifiable concentrate, manufactured by BASF)” for “powder,”, “9.” for “5.”

[3] = tested on: goosegrass (Eleusine indica); assay: (11) Herbicidal effect test, pot, spray at 7.0 to 8.3 leaf stage; settings: 3rd day after spraying
Source text: as §1
Upland soil was put in a 1/1,000,000 hectare pot, and seeds of goosegrass (Eleusine indica) were sown. When goosegrass reached 7.0 to 8.3 leaf stage, a water-based suspension containing tiafenacil as the active ingredient, prepared by a conventional method for preparing a water-based suspension, and a wettable powder containing tri-allate as the active ingredient, prepared by a conventional method for preparing a wettable powder, an emulsifiable concentrate containing pethoxamid as the active ingredient (tradename: Successor 600, manufactured by Stähler Suisse SA) or an emulsifiable concentrate containing dimethenamid-P as the active ingredient (tradename: Fieldstar P emulsifiable concentrate, manufactured by BASF) were diluted with water (in an amount corresponding to 200 liter per hectare) containing 0.5 vol % of an agricultural spreader (tradename: Destiny HC, manufactured by Winfield Solutions, LLC.) and sprayed by a small spray gun (model: W-101-132G, manufactured by ANEST IWATA Corporation). On the 3rd day after spraying, the state of growth of the goosegrass was visually observed, and the growth inhibition rate (%) was obtained in accordance with the evaluation standards described in the above (1) herbicidal effect test, and the results are shown in Table 11. Further, the expected value of the growth inhibition rate (%) was calculated in accordance with the Colby's formula described in the above (1) herbicidal effect test, and the results are also shown in Table 11.

[4] = tested on: waterhemp (Amaranthus tuberculatus); assay: (13) Herbicidal effect test, pot, spray at 5.0 to 8.0 leaf stage; settings: 4th day after spraying
Source text: as §1
Upland soil was put in a 1/1,000,000 hectare pot, and seeds of waterhemp (Amaranthus tuberculatus) were sown. When the waterhemp reached 5.0 to 8.0 leaf stage, a water-based suspension containing tiafenacil as the active ingredient, prepared by a conventional method for preparing a water-based suspension, and a wettable powder containing tri-allate as the active ingredient, prepared by a conventional method for preparing a wettable powder, an emulsifiable concentrate containing pethoxamid as the active ingredient (tradename: Successor 600, manufactured by Stähler Suisse SA) or an emulsifiable concentrate containing dimethenamid-P as the active ingredient (tradename: Fieldstar P emulsifiable concentrate, manufactured by BASF) were diluted with water (in an amount corresponding to 200 liter per hectare) containing 0.5 vol % of an agricultural spreader (tradename: Destiny HC, manufactured by Winfield Solutions, LLC.) and sprayed by a small spray gun (model: W-101-132G, manufactured by ANEST IWATA Corporation). On the 4th day after spraying, the state of growth of the waterhemp was visually observed, and the growth inhibition rate (%) was obtained in accordance with the evaluation standards described in the above (1) herbicidal effect test, and the results are shown in Table 13. Further, the expected value of the growth inhibition rate (%) was calculated in accordance with the Colby's formula described in the above (1) herbicidal effect test, and the results are also shown in Table 13.

COC(=O)CCNC(=O)C(C)Sc1cc(-n2c(=O)cc(C(F)(F)F)n(C)c2=O)c(F)cc1Cl (stereo not drawn) [tiafenacil]
Growth inhibition rate (%) Measured value ([1]; Dose 3.13 g/ha): 17%
Growth inhibition rate (%) Measured value ([1]; Dose 6.25 g/ha): 33%
Growth inhibition rate (%) Measured value ([1]; Dose 12.5 g/ha): 60%
Growth inhibition rate (%) Measured value ([2]; Dose 6.25 g/ha): 30%
Growth inhibition rate (%) Measured value ([3]; Dose 6.25 g/ha): 77%
Growth inhibition rate (%) Measured value ([4]; Dose 6.25 g/ha): 73%

COC[C@H](C)N(C(=O)CCl)c1c(C)csc1C [dimethenamid-P]
Growth inhibition rate (%) Measured value ([2]; Dose 500 g/ha): 33%
Growth inhibition rate (%) Measured value ([2]; Dose 625 g/ha): 40%
Growth inhibition rate (%) Measured value ([3]; Dose 60 g/ha): 0%
Growth inhibition rate (%) Measured value ([3]; Dose 375 g/ha): 0%
Growth inhibition rate (%) Measured value ([3]; Dose 750 g/ha): 0%
Growth inhibition rate (%) Measured value ([4]; Dose 60 g/ha): 0%
Growth inhibition rate (%) Measured value ([4]; Dose 375 g/ha): 0%
Growth inhibition rate (%) Measured value ([4]; Dose 750 g/ha): 0%

CSc1nnc(C(C)(C)C)c(=O)n1N [metribuzin]
inhibition at 137.5 g/ha ([1]; Lolium multiflorum, Dose 137.5 g/ha, read-out: Growth inhibition rate (%) Measured value): 20%
inhibition at 275 g/ha ([1]; Lolium multiflorum, Dose 275 g/ha, read-out: Growth inhibition rate (%) Measured value): 30%
inhibition at 550 g/ha ([1]; Lolium multiflorum, Dose 550 g/ha, read-out: Growth inhibition rate (%) Measured value): 30%

CC(C)N(C(=O)SCC(Cl)=C(Cl)Cl)C(C)C [tri-allate]
inhibition at 75 g/ha ([1]; Lolium multiflorum, Dose 75 g/ha, read-out: Growth inhibition rate (%) Measured value): 0%
inhibition at 150 g/ha ([1]; Lolium multiflorum, Dose 150 g/ha, read-out: Growth inhibition rate (%) Measured value): 0%
inhibition at 625 g/ha ([1]; Lolium multiflorum, Dose 625 g/ha, read-out: Growth inhibition rate (%) Measured value): 2%
inhibition at 1250 g/ha ([1]; Lolium multiflorum, Dose 1250 g/ha, read-out: Growth inhibition rate (%) Measured value): 5%
inhibition at 937.5 g/ha ([2]; Lolium multiflorum, Dose 937.5 g/ha, read-out: Growth inhibition rate (%) Measured value): 3%
inhibition at 75 g/ha ([3]; Eleusine indica, Dose 75 g/ha, read-out: Growth inhibition rate (%) Measured value): 0%
inhibition at 625 g/ha ([3]; Eleusine indica, Dose 625 g/ha, read-out: Growth inhibition rate (%) Measured value): 0%
inhibition at 1250 g/ha ([3]; Eleusine indica, Dose 1250 g/ha, read-out: Growth inhibition rate (%) Measured value): 5%
inhibition at 75 g/ha ([4]; Amaranthus tuberculatus, Dose 75 g/ha, read-out: Growth inhibition rate (%) Measured value): 0%
inhibition at 625 g/ha ([4]; Amaranthus tuberculatus, Dose 625 g/ha, read-out: Growth inhibition rate (%) Measured value): 0%
inhibition at 1250 g/ha ([4]; Amaranthus tuberculatus, Dose 1250 g/ha, read-out: Growth inhibition rate (%) Measured value): 0%

Cn1nc(C(F)(F)F)c(CS(=O)(=O)C2=NOC(C)(C)C2)c1OC(F)F [pyroxasulfone]
inhibition at 7.5 g/ha ([1]; Lolium multiflorum, Dose 7.5 g/ha, read-out: Growth inhibition rate (%) Measured value): 0%
inhibition at 15 g/ha ([1]; Lolium multiflorum, Dose 15 g/ha, read-out: Growth inhibition rate (%) Measured value): 3%
inhibition at 62.5 g/ha ([1]; Lolium multiflorum, Dose 62.5 g/ha, read-out: Growth inhibition rate (%) Measured value): 8%
inhibition at 125 g/ha ([1]; Lolium multiflorum, Dose 125 g/ha, read-out: Growth inhibition rate (%) Measured value): 17%
inhibition at 250 g/ha ([1]; Lolium multiflorum, Dose 250 g/ha, read-out: Growth inhibition rate (%) Measured value): 23%

CCOCCN(C(=O)CCl)C(=C(C)C)c1ccccc1 [pethoxamid]
Growth inhibition rate (%) Measured value ([2]; Dose 312.5 g/ha): 5%
Growth inhibition rate (%) Measured value ([2]; Dose 437.5 g/ha): 3%
Growth inhibition rate (%) Measured value ([2]; Dose 625 g/ha): 8%
Growth inhibition rate (%) Measured value ([3]; Dose 93.8 g/ha): 0%
Growth inhibition rate (%) Measured value ([3]; Dose 375 g/ha): 0%
Growth inhibition rate (%) Measured value ([3]; Dose 750 g/ha): 0%
Growth inhibition rate (%) Measured value ([4]; Dose 93.8 g/ha): 0%
Growth inhibition rate (%) Measured value ([4]; Dose 375 g/ha): 0%
Growth inhibition rate (%) Measured value ([4]; Dose 750 g/ha): 0%

Reference: patent US20250380696A1, “METHOD FOR CONTROLLING UNDESIRED PLANTS AND PROMOTING GROWTH OF USEFUL PLANTS” (ISHIHARA SANGYO KAISHA, LTD., priority 2022, published 2025)
